Measurements as given in PubChem BioAssay (NCI).
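Step 1: Grow cells in 96-well plates. Step 2: Expose to compound for 48 hours at 5 concentrations. Step 3: Interpolate endpoints linearly; if unreached, use highest concentration. GI50 = concentration required for 50% inhibition of growth. TGI: total growth inhibition.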

Experiments:
Test in all cases: NCI-60 cell line screen, 48 h
[1] = tested on: A498 renal
[2] = tested on: A549 NSCLC
[3] = tested on: ACHN renal
[4] = tested on: BT-549 breast
[5] = tested on: CAKI-1 renal
[6] = tested on: CCRF-CEM leukemia
[7] = tested on: COLO 205 colon
[8] = tested on: DU-145 prostate
[9] = tested on: EKVX NSCLC
[10] = tested on: HCC-2998 colon
[11] = tested on: HCT-15 colon
[12] = tested on: HOP-62 NSCLC
[13] = tested on: HOP-92 NSCLC
[14] = tested on: HS 578T breast
[15] = tested on: HT29 colon
[16] = tested on: IGROV1 ovarian
[17] = tested on: K-562 leukemia
[18] = tested on: KM12 colon
[19] = tested on: LOX IMVI melanoma
[20] = tested on: M14 melanoma
[21] = tested on: MALME-3M melanoma
[22] = tested on: MCF7 breast
[23] = tested on: MDA-MB-231 breast
[24] = tested on: MOLT-4 leukemia
[25] = tested on: NCI-H23 lung
[26] = tested on: NCI-H460 lung
[27] = tested on: NCI-H522 lung
[28] = tested on: NCI/ADR-RES ovarian
[29] = tested on: OVCAR-3 ovarian
[30] = tested on: OVCAR-4 ovarian
[31] = tested on: OVCAR-5 ovarian
[32] = tested on: OVCAR-8 ovarian
[33] = tested on: PC-3 prostate
[34] = tested on: RPMI-8226 leukemia
[35] = tested on: RXF 393 renal
[36] = tested on: SF-268 CNS
[37] = tested on: SF-539 CNS
[38] = tested on: SK-MEL-2 melanoma
[39] = tested on: SK-MEL-28 melanoma
[40] = tested on: SK-MEL-5 melanoma
[41] = tested on: SN12C renal
[42] = tested on: SNB-19 CNS
[43] = tested on: SW-620 colon
[44] = tested on: T-47D breast
[45] = tested on: TK-10 renal
[46] = tested on: U251 CNS
[47] = tested on: UACC-257 melanoma
[48] = tested on: UACC-62 melanoma
[49] = tested on: UO-31 renal
[50] = tested on: 786-0 renal
[51] = tested on: HCT-116 colon
[52] = tested on: HL-60(TB) leukemia
[53] = tested on: MDA-MB-435
[54] = tested on: SF-295 CNS
[55] = tested on: SK-OV-3 ovarian
[56] = tested on: SNB-75 CNS
[57] = tested on: SR leukemia

O=C1c2cc3c(cc2-c2c1c1ccc(Cl)cc1c(=O)n2C[C@H](O)[C@@H](O)[C@H](O)CO)OCO3
GI50 [1]: 0.0673 µM | TGI [1]: 0.207 µM | GI50 [2]: 0.112 µM | TGI [2]: 0.476 µM | GI50 [3]: 0.0254 µM | TGI [3]: 0.118 µM | GI50 [4]: 0.0301 µM | TGI [4]: 1.36 µM | GI50 [5]: 0.0325 µM | TGI [5]: 0.4 µM | GI50 [6]: < 0.01 µM | TGI [6]: 17 µM | GI50 [7]: 0.08 µM | TGI [7]: 0.895 µM | GI50 [8]: 0.0374 µM | TGI [8]: > 100 µM | GI50 [9]: 0.202 µM | TGI [9]: 11.2 µM | GI50 [10]: 0.0638 µM | TGI [10]: 0.479 µM | GI50 [11]: 0.143 µM | TGI [11]: 1.66 µM | GI50 [12]: 0.0186 µM | TGI [12]: 0.341 µM | GI50 [13]: 0.069 µM | TGI [13]: 0.666 µM | GI50 [14]: 0.328 µM | TGI [14]: > 100 µM | GI50 [15]: 0.0498 µM | TGI [15]: 0.283 µM | GI50 [16]: 0.126 µM | TGI [16]: > 100 µM | GI50 [17]: 0.0342 µM | TGI [17]: > 100 µM | GI50 [18]: 0.138 µM | TGI [18]: > 100 µM | GI50 [19]: 0.0145 µM | TGI [19]: 0.103 µM | GI50 [20]: 0.0292 µM | TGI [20]: 10.1 µM | GI50 [21]: 0.0737 µM | TGI [21]: 0.505 µM | GI50 [22]: < 0.01 µM | TGI [22]: 0.178 µM | GI50 [23]: 0.333 µM | TGI [23]: 3.76 µM | GI50 [24]: < 0.01 µM | TGI [24]: 12.5 µM | GI50 [25]: 0.0293 µM | TGI [25]: 0.193 µM | GI50 [26]: 0.0284 µM | TGI [26]: 0.153 µM | GI50 [27]: 0.0117 µM | TGI [27]: 0.172 µM | GI50 [28]: 0.0335 µM | TGI [28]: 1.91 µM | GI50 [29]: 0.0758 µM | TGI [29]: 0.452 µM | GI50 [30]: 0.177 µM | TGI [30]: > 100 µM | GI50 [31]: 0.0524 µM | TGI [31]: 1.29 µM | GI50 [32]: 0.0633 µM | TGI [32]: > 100 µM | GI50 [33]: 0.128 µM | TGI [33]: > 100 µM | GI50 [34]: 0.24 µM | TGI [34]: 0.989 µM | GI50 [35]: 0.0536 µM | TGI [35]: 0.258 µM | GI50 [36]: 0.0155 µM | TGI [36]: > 100 µM | GI50 [37]: 0.016 µM | TGI [37]: 0.0602 µM | GI50 [38]: 0.194 µM | TGI [38]: 0.432 µM | GI50 [39]: 0.0997 µM | TGI [39]: 1.16 µM | GI50 [40]: 0.0253 µM | TGI [40]: 0.0701 µM | GI50 [41]: 0.0473 µM | TGI [41]: > 100 µM | GI50 [42]: 0.0216 µM | TGI [42]: > 100 µM | GI50 [43]: 0.0163 µM | TGI [43]: 0.325 µM | GI50 [44]: 0.0132 µM | TGI [44]: 0.29 µM | GI50 [45]: 0.271 µM | TGI [45]: 1.58 µM | GI50 [46]: < 0.01 µM | TGI [46]: 0.0505 µM | GI50 [47]: 0.0771 µM | TGI [47]: 0.396 µM | GI50 [48]: 0.0129 µM | TGI [48]: 0.111 µM | GI50 [49]: 0.0297 µM | TGI [49]: 0.125 µM

COc1ccc(N(CC(=O)NCCC[Te]c2ccccc2)C(=O)CCSC2=C(C)C(=O)c3ccccc3C2=O)cc1
GI50 [50]: 2.32 µM | TGI [50]: 4.91 µM | GI50 [1]: 1.96 µM | TGI [1]: 4.61 µM | GI50 [2]: 0.302 µM | TGI [2]: 1.07 µM | GI50 [3]: 1.57 µM | TGI [3]: 3.47 µM | GI50 [4]: 0.508 µM | TGI [4]: 3.43 µM | GI50 [5]: 2.25 µM | TGI [5]: 6.24 µM | GI50 [6]: 0.508 µM | GI50 [7]: 1.99 µM | TGI [7]: 3.64 µM | GI50 [8]: 1.44 µM | TGI [8]: 3.24 µM | GI50 [9]: 0.326 µM | TGI [9]: 2.98 µM | GI50 [10]: 1.67 µM | TGI [10]: 4.44 µM | GI50 [51]: 0.406 µM | TGI [51]: 1.72 µM | GI50 [11]: 0.673 µM | TGI [11]: 3.21 µM | GI50 [52]: 2.97 µM | TGI [52]: > 26.1 µM | GI50 [12]: 0.582 µM | TGI [12]: 1.58 µM | GI50 [13]: 1.72 µM | TGI [13]: 4.44 µM | GI50 [14]: 1.56 µM | TGI [14]: 6.69 µM | GI50 [15]: 1.95 µM | TGI [15]: 7.03 µM | GI50 [16]: 0.888 µM | TGI [16]: 2.35 µM | GI50 [17]: 2.48 µM | TGI [17]: > 22.7 µM | GI50 [18]: 0.702 µM | TGI [18]: 2.18 µM | GI50 [19]: 1.5 µM | TGI [19]: 3.54 µM | GI50 [20]: 1.17 µM | TGI [20]: 2.99 µM | GI50 [21]: 2.25 µM | TGI [21]: 4.51 µM | GI50 [22]: 0.585 µM | TGI [22]: 11.3 µM | GI50 [23]: 1.22 µM | TGI [23]: 3.46 µM | GI50 [53]: 2.67 µM | TGI [53]: 8.11 µM | GI50 [24]: 0.911 µM | GI50 [25]: 0.623 µM | TGI [25]: 2.83 µM | GI50 [26]: 0.31 µM | TGI [26]: 0.948 µM | GI50 [27]: 0.948 µM | TGI [27]: 3.59 µM | GI50 [28]: 1.46 µM | TGI [28]: 6.16 µM | GI50 [29]: 1.44 µM | TGI [29]: 3.19 µM | GI50 [30]: 2.95 µM | TGI [30]: 11.2 µM | GI50 [31]: 0.498 µM | TGI [31]: 1.88 µM | GI50 [32]: 0.722 µM | TGI [32]: 6.06 µM | GI50 [33]: 0.656 µM | TGI [33]: 2.91 µM | GI50 [34]: 1.02 µM | TGI [34]: 5.66 µM | GI50 [35]: 2.07 µM | TGI [35]: 4.47 µM | GI50 [36]: 1.11 µM | TGI [36]: 3.99 µM | GI50 [54]: 0.232 µM | TGI [54]: 0.704 µM | GI50 [37]: 1.88 µM | TGI [37]: 3.65 µM | GI50 [38]: 2.31 µM | TGI [38]: 5.49 µM | GI50 [39]: 2.48 µM | TGI [39]: 5.87 µM | GI50 [40]: 1.56 µM | TGI [40]: 2.96 µM | GI50 [55]: 2.14 µM | TGI [55]: 4.67 µM | GI50 [41]: 0.84 µM | TGI [41]: 3.77 µM | GI50 [42]: 2.91 µM | TGI [42]: 12.1 µM | GI50 [56]: 1.17 µM | TGI [56]: 7.64 µM | GI50 [57]: 0.498 µM | TGI [57]: > 100 µM | GI50 [43]: 2.41 µM | TGI [43]: 8.03 µM | GI50 [45]: 3.25 µM | TGI [45]: 8.01 µM | GI50 [46]: 0.553 µM | TGI [46]: 2.32 µM | GI50 [47]: 2.56 µM | TGI [47]: 6.51 µM | GI50 [48]: 1.82 µM | TGI [48]: 4.31 µM | GI50 [49]: 0.437 µM | TGI [49]: 2.45 µM
